Measurements: article PMC2745596 (Bioorganic & Medicinal Chemistry Letters, 2008)

Key:
SARS-CoV Urbani strain = type: cell-based
SARS-CoV 3CLpro = SARS-CoV 3CLpro (Severe acute respiratory syndrome coronavirus, UniProt P0C6X7); type: biochemical

Structure (SMILES)	antiviral activity (in words) (SARS-CoV Urbani strain)	potency enhancement over 5 (enzyme IC50) (SARS-CoV 3CLpro) [fold]
O=C(On1nnc2ccccc21)c1ccc2[nH]ccc2c1 [Inhibitor 3]	did not exhibit any antiviral activity	–
O=C(Oc1cncc(Cl)c1)c1cccc2[nH]ccc12 [Inhibitor 10]	–	10
